{
  "source": "patent US20210361664A1",
  "about": "“CORTICOTROPIN RELEASING FACTOR RECEPTOR ANTAGONISTS” (Spruce Biosciences, Inc., priority 2017, published 2021)",
  "key": {"CRF1 receptor": {"target": "T1, CRF1 receptor (Homo sapiens, UniProt P34998)", "T1 construct": "from tissue; host or cells: in vivo, human patients (anterior pituitary corticotrophs)", "T1 sequence (P34998 24-415)": "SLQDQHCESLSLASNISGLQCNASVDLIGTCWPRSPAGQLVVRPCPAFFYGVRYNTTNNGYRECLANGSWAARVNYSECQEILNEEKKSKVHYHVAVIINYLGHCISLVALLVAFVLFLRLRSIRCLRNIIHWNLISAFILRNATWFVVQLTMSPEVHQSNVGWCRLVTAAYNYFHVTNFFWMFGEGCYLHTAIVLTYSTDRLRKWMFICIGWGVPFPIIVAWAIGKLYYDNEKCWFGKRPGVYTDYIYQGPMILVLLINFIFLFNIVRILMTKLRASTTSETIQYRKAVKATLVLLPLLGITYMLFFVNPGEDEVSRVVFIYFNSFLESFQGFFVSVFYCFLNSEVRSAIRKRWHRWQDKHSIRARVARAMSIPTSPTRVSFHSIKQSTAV", "test": "Phase 2 study in adults with classic CAH: hormone response (ACTH, 17-OHP, androstenedione)", "type": "in vivo", "text": "Cohort A of the Phase 2 Study includes a 6-week, multiple-dose, dose escalation study of Compound 1 for the treatment of adults with classic CAH. After screening, eligible patients will be enrolled into a 6-week treatment period followed by a 4-week washout/safety follow-up period.\nThis cohort will be conducted in approximately 9 patients, who will receive Compound 1 daily for up to 6 weeks. Compound 1 will be administered as an oral daily dose. Patients will undergo titration of Compound 1 through three escalating dosage strengths at 2-week intervals. […]\nPatients in Cohort B will receive study drug at 200 mg BID, with a dose in the morning and a dose in the evening, either with a meal or consumption of a standardized snack. For Cohorts C and D, the dose level and the frequency and timing of dosing will be determined based on interim data from the previous cohorts. […]\n• 1. […] To assess the efficacy of Compound 1 in subjects with classic CAH as measured by percent and absolute change in 17-OHP compared to baseline.\n• 3. To explore the dose(s) of Compound 1 that cause pharmacodynamics changes in plasma concentrations of ACTH, androstenedione, and testosterone, as measured by the absolute and percent change from baseline by dose. • 4. […]"}, "[1]": {"test": "Study 1: single-escalating oral dose pharmacokinetics, incl. food effect (Phase 1)", "type": "in vivo, human", "settings": "50 to 800 mg, fed state", "procedure": "Study 1 was the first-in-human study that investigated the safety, tolerability, and PK of single-escalating doses of Compound 1, given orally, to healthy adult subjects. […] The data from this study were used for the selection of doses for Study 2.\nIn Study 1, Compound 1 was administered to healthy adult subjects as a single PO dose of 2, 10, 50, 150, 400, or 800 mg in the fed state and 150 mg in the fasted state. Absorption occurred moderately late, achieving peak Cmax between 4 to 6 hours following dosing in the fed state.\nWhen Compound 1 was given in the fed state, median time to reach maximum plasma concentration (Tmax) occurred between 4 and 6 hours.\nAs part of this single-dose escalation study, a food effect PK investigation was performed to examine Compound 1 exposures in both the fed and fasted states at the 150-mg dose level. A total of 6 subjects were administered 150 mg Compound 1 in each of these 2 dosing groups. Of these 6 subjects, 4 subjects received Compound 1 at the same dose in both fed and fasted states. […] Table 6 provides a summary of the PK parameters at the 150-mg dose level under both fed and fasted state conditions.\nPK parameters AUC0-∞ and Cmax were analyzed separately for dose proportionality for Compound 1 from 50 to 800 mg when administered in the fed state. […]"}, "[2]": {"test": "Study 2 Part A: multiple-dose, dose-escalation pharmacokinetics (Phase 1, 14 days)", "type": "in vivo, human", "settings": "after 2 weeks of dosing", "procedure": "The 2-part multiple-dose study, Study 2, determined the safety and tolerability of repeated daily doses of Compound 1 and investigated the effects on biomarkers of relevance for the treatment of alcohol dependence.\nPK were also evaluated in the multiple-dose, dose-escalation study, Study 2. In Part A of the study, subjects were divided into 3 cohorts and received 50, 150, or 200 mg Compound 1 or placebo for 14 consecutive days (at least 6 subjects received Compound 1 and 2 subjects received placebo in each cohort). […] All dosing occurred in the fed state. An assessment of diurnal cortisol levels, plus when under conditions of glucose clamp, were also carried out both prior to and during the dosing period.\nConsistent with the single-dose study (Study 1), concentrations appeared to decline in a bi-exponential manner, characterized by a rapid decrease within the first 24 hours. […] The Tmax appeared to be consistent across doses. Overall half-lives, weight normalized CL/F and V/F were consistent for 150 and 200 mg. However, the values for these latter 2 parameters were almost doubled at the 50-mg dose level. Variability (CV %) for apparent clearance and volume of distribution were large and not reduced with weight-normalization.\nTable 8 presents the results of the dose proportionality assessment for the AUC0-24 and Cmax over the tested dose range."}},
  "data": [
    {"compound": "CCC(CC)c1cc(C)nc2c(-c3sc(N4CCOCC4)nc3Cl)c(C)nn12", "note": "[Compound 1, 3-(4-Chloro-2-(morpholin-4-yl)thiazol-5-yl)-7-(1-ethylpropyl)-2,5-dimethylpyrazolo(1,5-a)pyrimidine]", "values": [
      {"measurement": "subjects with 17-OHP within the guideline range after treatment", "setting": "CRF1 receptor; guideline range (1200 ng/dL)", "value": 50, "unit": "%"},
      {"measurement": "morning rise in A4", "setting": "CRF1 receptor; patients with CAH", "value": "attenuates"},
      {"measurement": "AUC0-∞ increase for every doubling of dose, relative to dose proportionality", "setting": "[1]", "value": 1.74, "unit": "times"},
      {"measurement": "Cmax dose proportionality, in words", "setting": "[1]", "value": "more than dose proportional"},
      {"measurement": "Blood concentrations relative to steady state", "setting": "[2]", "value": "close to steady-state levels"}
    ]}
  ]
}
